In PubChem BioAssay AID179 (DTP/NCI, 2004) one finds EC50, IC50 and outcome data, which are given here for 71 compounds.

The term EC50 denotes the concentration at which the effect is half-maximal. The term IC50 denotes the midpoint of a concentration-inhibition curve.

The test system of this test is CEM cells HIV-1 protection, formazan growth assay. The test is described as follows: NCI AIDS Antiviral Assay. The following applies: for IC50: measured here: growth of uninfected CEM cells. The procedure, abridged:
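CEM (human) cells, HIV-1 infected vs uninfected, 5-point dosing, formazan growth read-out. Retest threshold 50% protection.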

Calls of active or inactive are those of the source.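 How the source made its calls: active means compounds giving half or more protection of infected cells from virus-caused growth loss, again on retest; inactive means the rest.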

Consider `CCC1=CC(OCc2ccccc2)C(CCN(Cc2ccccc2)C(=O)OCc2ccccc2)C1` (stereo unspecified), for which the EC50 was above 200 µM and the IC50 was 9.55 µM. `COC12[C@@H]3N[C@@H]3CN1C1=C(C(=O)C(NCCSSCCNC3=C(C)C(=O)C4=C(C3=O)C(COC(N)=O)[C@]3(OC)C5N[C@@H]5CN43)=C(C)C1=O)[C@@H]2COC(N)=O` (stereo partly specified): the EC50 is above 200 µM and the IC50 worked out at 0.0631 µM. The like results for `c1ccc2c(c1)Cc1ccccc1-c1c-2[nH]c2ccccc12` were, in that order, above 200 µM and 10.5 µM.

Take `c1ccc(CN2COc3c(ccc4c5c(ccc34)CN(Cc3ccccc3)CO5)C2)cc1`: the EC50 was above 2.45 µM and the IC50 is above 2.45 µM. On to `C/C(=N\N=C(N)N)C(CN1CCCCC1)C(c1ccccc1)c1c(O)c2ccccc2oc1=O` (stereo unspecified), for which the EC50 was above 52.5 µM and the IC50 is above 52.5 µM.

As to `CC1=C(/C=C/C(C)=C/C=C/C(C)=C/C(=O)O)C(C)(C)CCC1`, the outcome was inactive. With `CCOC(=O)C(CCc1ccccn1)C(C)=O` (stereo unspecified), the EC50 was above 200 µM and the IC50 was above 200 µM. With `COc1cc2c(cc1OC)C1C=NC(C2)c2cc(OC)c(OC)cc21` (stereo unspecified), the outcome was inactive. The same measure, in the same setting: next, `CCN(CC)CCNC(=O)c1nn(C)c(=S)[nH]c1=S`: “inactive”. For `Cc1ccc(S(=O)(=O)N/N=C2/CC[C@H](C(C)(C)C)C[C@@H]2C)cc1`, the EC50 was above 200 µM and the IC50 was 21.9 µM. Regarding `O=C1/C(=C/c2ccc(Cl)c(Cl)c2)CNC/C1=C\c1ccc(Cl)c(Cl)c1`, the EC50 was above 16.2 µM and the IC50 amounted to 8.71 µM. The like results for `O=C(CC(c1ccccc1)c1ccccc1)NCCCCN1CCCCCCC1` were, in that order, above 200 µM and 12.9 µM. The like results for `NC(N)=NS(=O)(=O)c1ccc(Nc2c3ccccc3nc3c(C(=O)N4CCN(CCO)CC4)cccc23)cc1` were, in that order, above 40.7 µM and above 40.7 µM. The like results for `Cn1cnc([N+](=O)[O-])c1Sc1nnnn1C` were, in that order, above 1020 µM and 5.5 µM. Regarding `N#C/C(=C\c1cc(Cl)cc(Cl)c1)c1ccccn1`, the EC50 was above 200 µM and the 50% inhibitory concentration (IC50) came out at 8.91 µM. The like results for `COc1cc(Nc2nc3c(N)cc(C(F)(F)F)cc3nc2-c2ccccc2)cc(OC)c1OC` were, in that order, above 15.1 µM and above 15.1 µM. `Cn1c(=O)c2c(nc3n(CC(O)CCl)c(=O)ccn23)n(C)c1=O` (stereo unspecified): the EC50 was above 200 µM and the IC50 came to 22.4 µM. Taken in the same sequence, the figures for `CCCCc1c2c(nc3c1CCc1cc(C=O)c(N)nc1-3)/C(=C/c1ccccc1)CCC2` were above 4.37 µM and above 4.37 µM. The like results for `CCOC(=O)[C@H]1CSC[C@@H](C(=O)OC)N1` were, in that order, above 562 µM and above 562 µM. Taken in the same sequence, the figures for `CCOP(=O)(O)Cc1c(Cl)c(Cl)c(CP(=O)(O)OCC)c(Cl)c1Cl` were above 200 µM and 132 µM. Turning to `COc1cc(SSc2ccc(N)c(OC)c2)ccc1N`, the EC50 is above 200 µM and the IC50 was 26.3 µM.

`N#CC1(C2CC(=O)N(c3ccccc3)C2=O)CCCCC1=O` (stereo unspecified): the result was inactive.

For the compound `C[C@]12CC[C@H](OC(=O)CCC(=O)O)CC1=CC[C@@H]1C2CC[C@@]2(C)C1CC[C@@H]2c1nc(-c2ccccc2)cs1` (stereo partly specified), the EC50 is above 46.8 µM and the IC50 came to 17.4 µM. On to `Cc1cc2cc3ccc4cccc5ccc(c2oc1=O)c3c45`, for which the result was inactive. Take `C=C(C)COc1cc(NC(=S)OC(C)C)ccc1Cl`: the EC50 was 0.813 µM and the IC50 was determined as 4.79 µM.

With `COc1ccc(/C=C\c2cc(OC)c(OC)c(OC)c2)cc1O`, the EC50 was above 214 µM and the IC50 was 0.0692 µM. In the case of `CCCCCCCCCCCCCCCCCC(=O)OC(COC(=O)COCCOCCOCCOCCOCCOC)COP(=O)([O-])OCC[N+](C)(C)C` (stereo unspecified), the result was inactive. `CC(=O)c1ccc(NC(=O)/C(=N\NC(N)=O)C(C#N)CC(C)(C)C=O)cc1` (stereo unspecified): the EC50 is above 490 µM and the IC50 is above 490 µM. On to `CCOC(=O)c1ccc(CS(=O)(=O)c2ccc([N+](=O)[O-])cc2)c([N+](=O)[O-])c1`, for which the EC50 is above 91.2 µM and the IC50 was determined as 60.3 µM. For the compound `NS(=O)(=O)c1ccc(N=Cc2cc(Cl)cc(Cl)c2O)cc1`, the EC50 was above 200 µM and the IC50 is 16.6 µM. Taken in the same sequence, the figures for `COC[C@H]1c2cc(O)c(OCc3ccccc3)cc2O[C@@H]1c1ccc(OC)cc1` were above 200 µM and 19.5 µM.

In the case of `COCc1c(C(=O)NCCO)[n+](=O)c2ccccc2n1[O-]`, the EC50 was above 87.1 µM and the IC50 was above 87.1 µM.

For the compound `N#CC(C#N)=CN1CCOCC1`, the EC50 is above 200 µM and the IC50 is above 200 µM. Regarding `OCC1OC2OC3C(CO)OC(OC4C(CO)OC(OC5C(CO)OC(OC6C(CO)OC(OC7C(CO)OC(OC1C(O)C2O)C(O)C7O)C(O)C6O)C(O)C5O)C(O)C4O)C(O)C3O` (stereo unspecified) (tested in a mixture with another compound), the EC50 is above 200 µM and the IC50 was above 200 µM. As for `O=C(Nc1cccc(C(F)(F)F)c1)O/N=C(/Cl)CCl`, the EC50 was above 200 µM and the IC50 is 33.9 µM.

With `COC(=O)C1CCC(=O)C(Sc2ccccc2)C1` (stereo unspecified), the EC50 is above 97.7 µM and the IC50 is 43.7 µM. Regarding `CN1CN(C(=O)N2CN(C)C(=O)N(C)C2)CN(C)C1=O`, the EC50 is above 158 µM and the IC50 is above 158 µM. For the compound `COc1ccc(N=N/C(=N/NC(=O)c2ccccc2)c2ccc(N(CCC#N)CCC#N)cc2C)cc1`, the EC50 was above 200 µM and the IC50 is 11.5 µM.

For the compound `O=c1oc2ccccc2nc1/C=C(\O)c1ccc(Cl)cc1`, the EC50 is above 200 µM and the IC50 was found to be 64.6 µM. Consider `O=C(CSc1nnc(Cc2ccccc2)o1)Nc1ccc(Cl)cc1Cl`, for which the EC50 is above 66.1 µM and the half-inhibitory concentration (IC50) was above 66.1 µM. With `OC1c2ccccc2-c2nc3cccccc-3c21` (stereo unspecified), the EC50 is above 155 µM and the IC50 came to 24 µM. Regarding `COc1ccc2c(c1O)-c1c(OC)c(OC)cc3c1C(C2)N(C)CC3` (stereo unspecified), the EC50 is above 200 µM and the IC50 was above 200 µM. Regarding `CCO[C@@H]1C2C=CC(C2)[C@H]1[N+](=O)[O-]` (stereo partly specified), the EC50 is above 141 µM and the IC50 is above 141 µM. Regarding `O=C(Nc1ccccc1)C(c1ccccc1)N(Nc1ccccc1Cl)c1ccccc1Cl` (stereo unspecified), the EC50 is above 200 µM and the IC50 was determined as 33.9 µM. Taken in the same sequence, the figures for `Cn1nc2ccc(Nc3cc(=O)[nH]c4ccc5nn(C)nc5c34)cc2n1` were above 200 µM and 95.5 µM. With `CC(CC(C)[C@H]1CCC2[C@H]3C(CC(=O)[C@@]21C)[C@@]1(C)CCC(O)C[C@H]1C[C@@H]3O)C(=O)O` (stereo partly specified), the EC50 is above 200 µM and the IC50 is 162 µM. The like results for `COc1cc([C@@H]2c3cc(O)c(OC)cc3C=C(C(N)=O)[C@H]2C(N)=O)ccc1O` were, in that order, above 0.2 µM and 0.0102 µM. Taken in the same sequence, the figures for `Cc1c(N=Nc2ccc(Br)cc2)c(=O)n(-c2ccccc2)c(=S)n1-c1nc2ccccc2s1` were above 83.2 µM and 19.5 µM. As to `NC(N)=NCCCC(Nc1c2ccccc2nc2ccccc12)C(=O)O` (stereo unspecified), the outcome was inactive. On the same count and under the same terms, next, `O=S(O)CCCCCSSc1ccccc1`: “inactive”.

`O/N=C1/CCCc2nonc21`: the EC50 is above 200 µM and the IC50 is above 200 µM. Turning to `O=C(O)CN(CC(=O)O)CC(O)CN(CC(=O)O)CC(=O)O`, the EC50 was above 200 µM and the IC50 was found to be 69.2 µM. For the compound `CC1CN(c2ccc(Cl)cc2)CC(C)OC(=O)O1` (stereo unspecified), the result was inactive. On to `COc1cc(C)c(Cc2cnc(N)nc2N)cc1OC`, for which the EC50 was above 200 µM and the IC50 is above 200 µM. Regarding `O=C1N2CCNc3ccccc3C(c3ccccc3)N1CC2` (stereo unspecified), the EC50 was above 200 µM and the IC50 worked out at 18.6 µM.

`CC1(O)C=CC2CCC1C2O` (stereo unspecified): the EC50 was above 1620 µM and the IC50 was above 1620 µM.

Turning to `O=C(N/N=C/c1c(-c2ccccc2)no[n+]1[O-])N1CCOCC1`, the EC50 was above 100 µM and the IC50 is above 100 µM. As to `COc1ccc2c(c1OC)C(=O)N/C2=C\c1c(CCN(C)C)cc2c(c1OC)OCO2`, the EC50 is above 200 µM and the IC50 was above 100 µM. The like results for `CCN=C(Nc1cccc(C2=NCCN2)c1)c1ccc(C(=NCC)Nc2cccc(C3=NCCN3)c2)cc1` were, in that order, 145 µM and above 200 µM. The like results for `CNC(=O)NC1ON=C(c2ccccc2)C1C(=O)NC` (stereo unspecified) were, in that order, above 200 µM and 182 µM. The like results for `CCOc1cc2c(cnc3c4cc(OC)c(OC)cc4ccc23)cc1OC` were, in that order, above 27.5 µM and above 27.5 µM. With `CC1(C)C2CCC(N)(C2)C1N` (stereo unspecified), the EC50 was above 200 µM and the IC50 was above 200 µM. `CCCn1c(=O)c(N2CCN(c3ccccc3)CC2)nc2sc3ccccc3c21`: the EC50 was above 200 µM and the IC50 is above 200 µM.

Take `CCN(CC)CCOC(=O)c1ccc(NC(=O)CN(CC)CC)cc1`: the EC50 was above 200 µM and the IC50 was above 200 µM.

For `Cc1ccc(NC(=O)/C(=N\NC(N)=O)c2c(O)c3ccccc3[nH]c2=O)cc1`, the EC50 is above 95.5 µM and the IC50 was above 95.5 µM. With `CCN(CC)CCOC(=O)c1cc2cc3cc(C(=O)OCCN(CC)CC)c(=O)oc3c(C)c2oc1=O`, the EC50 is above 200 µM and the IC50 was above 200 µM. In the case of `COc1ccc2oc3c4c2c1CCC4CCC3=O` (stereo unspecified), the outcome was inactive. Turning to `O=C1c2ccncc2C(=O)c2c(O)ccc(O)c21`, the EC50 is above 6.03 µM and the IC50 amounted to 3.24 µM. Taken in the same sequence, the figures for `CC(=O)OC12c3ccccc3C(c3ccccc31)C1C(=O)N(Nc3ccccc3)C(=O)C12` (stereo unspecified) were above 200 µM and above 200 µM.

The compound `Cc1cccc(N=Nc2c(S(=O)(=O)O)cc3cc(NC(=O)Nc4ccc5c(O)c(N=Nc6ccc7cc(S(=O)(=O)O)ccc7c6)c(S(=O)(=O)O)cc5c4)ccc3c2O)c1` returned a concentration for a half-maximal effect (EC50) of 15.8 µM and an IC50 of 75.9 µM.

Consider `CC1CC(=O)C2CC(CO)=CCCC2C1(C)CC/C(=C/CO)CO` (stereo unspecified), for which the outcome was inactive.
